This passage reports IC50 results from ChEMBL document CHEMBL2073750, “Differential interaction of 3-hydroxy-3-methylglutaryl-coa reductase inhibitors with ABCB1, ABCC2, and OATP1B1” (Drug Metab Dispos, 2005).

Type in all cases: functional, cell-based
For series [1], the target named is ATP-dependent translocase ABCB1 (Homo sapiens, UniProt P08183). The series is described as follows: TP_TRANSPORTER: inhibition of calcein-AM efflux in MDR1-expressing MDCK cells.
Series [2] has as its target ATP-binding cassette sub-family C member 2 (Homo sapiens, UniProt Q92887). The series can be described thus: TP_TRANSPORTER: inhibition of calcein-AM efflux in MRP2-expressing MDCK cells.
In series [3] the target is T1, Solute carrier organic anion transporter family member 1B1 (Homo sapiens, UniProt Q9Y6L6).
T1 sequence (Q9Y6L6 whole entry): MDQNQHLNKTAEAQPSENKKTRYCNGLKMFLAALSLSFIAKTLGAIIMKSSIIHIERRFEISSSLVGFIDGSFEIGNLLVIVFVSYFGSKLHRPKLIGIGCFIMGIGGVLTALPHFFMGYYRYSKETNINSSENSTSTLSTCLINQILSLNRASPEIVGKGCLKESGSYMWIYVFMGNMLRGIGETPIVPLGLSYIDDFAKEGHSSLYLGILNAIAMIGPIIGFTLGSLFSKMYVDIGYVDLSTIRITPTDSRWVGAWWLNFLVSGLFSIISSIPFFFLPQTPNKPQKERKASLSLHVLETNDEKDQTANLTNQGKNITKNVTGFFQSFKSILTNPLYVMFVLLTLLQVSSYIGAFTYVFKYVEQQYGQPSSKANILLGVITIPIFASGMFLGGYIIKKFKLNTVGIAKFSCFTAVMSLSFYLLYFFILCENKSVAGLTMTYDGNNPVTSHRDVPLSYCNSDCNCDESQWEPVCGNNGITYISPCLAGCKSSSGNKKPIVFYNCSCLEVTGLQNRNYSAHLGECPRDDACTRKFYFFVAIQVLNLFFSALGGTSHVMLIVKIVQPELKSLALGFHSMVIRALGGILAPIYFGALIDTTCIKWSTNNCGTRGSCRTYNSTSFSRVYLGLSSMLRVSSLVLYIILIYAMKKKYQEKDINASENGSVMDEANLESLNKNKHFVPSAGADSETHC
The series can be described thus: TP_TRANSPORTER: inhibition of estradiol-17beta-glucuronide uptake(estradiol-17beta-glucuronide:0.02uM) in OATP1B1-expressing HEK293 cells.

ATP-binding cassette sub-family C member 2, sequence (Q92887 whole entry): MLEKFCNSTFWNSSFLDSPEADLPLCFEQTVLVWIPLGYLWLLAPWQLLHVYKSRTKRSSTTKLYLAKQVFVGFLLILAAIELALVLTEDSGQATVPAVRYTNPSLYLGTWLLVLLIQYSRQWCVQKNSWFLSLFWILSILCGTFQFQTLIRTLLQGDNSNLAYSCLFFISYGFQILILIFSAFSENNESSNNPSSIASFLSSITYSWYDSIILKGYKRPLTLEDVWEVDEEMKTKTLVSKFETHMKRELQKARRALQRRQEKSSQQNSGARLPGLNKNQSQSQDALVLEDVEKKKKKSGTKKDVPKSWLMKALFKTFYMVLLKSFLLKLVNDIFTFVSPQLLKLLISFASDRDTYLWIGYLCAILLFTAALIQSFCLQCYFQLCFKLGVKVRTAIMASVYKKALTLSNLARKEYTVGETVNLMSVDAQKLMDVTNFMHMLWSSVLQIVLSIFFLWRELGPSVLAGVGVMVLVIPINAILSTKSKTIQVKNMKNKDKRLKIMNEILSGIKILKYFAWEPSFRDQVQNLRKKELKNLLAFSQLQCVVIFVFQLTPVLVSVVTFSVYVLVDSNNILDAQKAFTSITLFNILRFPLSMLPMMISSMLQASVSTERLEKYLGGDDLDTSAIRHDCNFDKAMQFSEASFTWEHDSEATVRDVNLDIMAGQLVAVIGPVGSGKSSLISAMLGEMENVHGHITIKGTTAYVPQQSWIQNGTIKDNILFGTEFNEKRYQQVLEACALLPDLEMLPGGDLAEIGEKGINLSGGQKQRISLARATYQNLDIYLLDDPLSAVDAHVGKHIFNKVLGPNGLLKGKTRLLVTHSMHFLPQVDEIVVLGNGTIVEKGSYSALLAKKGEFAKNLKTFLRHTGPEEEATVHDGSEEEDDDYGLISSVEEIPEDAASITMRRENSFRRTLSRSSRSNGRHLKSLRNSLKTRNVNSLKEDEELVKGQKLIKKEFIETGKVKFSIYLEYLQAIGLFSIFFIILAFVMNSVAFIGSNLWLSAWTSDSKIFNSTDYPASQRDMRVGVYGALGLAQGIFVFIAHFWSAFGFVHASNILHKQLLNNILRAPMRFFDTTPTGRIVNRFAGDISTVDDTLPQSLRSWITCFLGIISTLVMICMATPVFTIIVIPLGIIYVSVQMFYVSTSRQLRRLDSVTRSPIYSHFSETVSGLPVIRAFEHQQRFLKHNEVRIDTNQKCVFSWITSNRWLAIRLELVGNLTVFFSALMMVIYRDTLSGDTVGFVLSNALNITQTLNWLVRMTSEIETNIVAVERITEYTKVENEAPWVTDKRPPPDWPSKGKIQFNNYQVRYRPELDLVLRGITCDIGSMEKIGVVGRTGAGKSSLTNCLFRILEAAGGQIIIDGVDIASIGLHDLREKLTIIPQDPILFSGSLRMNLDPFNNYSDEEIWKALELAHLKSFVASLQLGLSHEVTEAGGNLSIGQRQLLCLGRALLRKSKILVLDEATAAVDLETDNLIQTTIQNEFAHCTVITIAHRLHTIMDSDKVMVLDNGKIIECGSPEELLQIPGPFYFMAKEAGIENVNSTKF
ATP-dependent translocase ABCB1, sequence (P08183 whole entry): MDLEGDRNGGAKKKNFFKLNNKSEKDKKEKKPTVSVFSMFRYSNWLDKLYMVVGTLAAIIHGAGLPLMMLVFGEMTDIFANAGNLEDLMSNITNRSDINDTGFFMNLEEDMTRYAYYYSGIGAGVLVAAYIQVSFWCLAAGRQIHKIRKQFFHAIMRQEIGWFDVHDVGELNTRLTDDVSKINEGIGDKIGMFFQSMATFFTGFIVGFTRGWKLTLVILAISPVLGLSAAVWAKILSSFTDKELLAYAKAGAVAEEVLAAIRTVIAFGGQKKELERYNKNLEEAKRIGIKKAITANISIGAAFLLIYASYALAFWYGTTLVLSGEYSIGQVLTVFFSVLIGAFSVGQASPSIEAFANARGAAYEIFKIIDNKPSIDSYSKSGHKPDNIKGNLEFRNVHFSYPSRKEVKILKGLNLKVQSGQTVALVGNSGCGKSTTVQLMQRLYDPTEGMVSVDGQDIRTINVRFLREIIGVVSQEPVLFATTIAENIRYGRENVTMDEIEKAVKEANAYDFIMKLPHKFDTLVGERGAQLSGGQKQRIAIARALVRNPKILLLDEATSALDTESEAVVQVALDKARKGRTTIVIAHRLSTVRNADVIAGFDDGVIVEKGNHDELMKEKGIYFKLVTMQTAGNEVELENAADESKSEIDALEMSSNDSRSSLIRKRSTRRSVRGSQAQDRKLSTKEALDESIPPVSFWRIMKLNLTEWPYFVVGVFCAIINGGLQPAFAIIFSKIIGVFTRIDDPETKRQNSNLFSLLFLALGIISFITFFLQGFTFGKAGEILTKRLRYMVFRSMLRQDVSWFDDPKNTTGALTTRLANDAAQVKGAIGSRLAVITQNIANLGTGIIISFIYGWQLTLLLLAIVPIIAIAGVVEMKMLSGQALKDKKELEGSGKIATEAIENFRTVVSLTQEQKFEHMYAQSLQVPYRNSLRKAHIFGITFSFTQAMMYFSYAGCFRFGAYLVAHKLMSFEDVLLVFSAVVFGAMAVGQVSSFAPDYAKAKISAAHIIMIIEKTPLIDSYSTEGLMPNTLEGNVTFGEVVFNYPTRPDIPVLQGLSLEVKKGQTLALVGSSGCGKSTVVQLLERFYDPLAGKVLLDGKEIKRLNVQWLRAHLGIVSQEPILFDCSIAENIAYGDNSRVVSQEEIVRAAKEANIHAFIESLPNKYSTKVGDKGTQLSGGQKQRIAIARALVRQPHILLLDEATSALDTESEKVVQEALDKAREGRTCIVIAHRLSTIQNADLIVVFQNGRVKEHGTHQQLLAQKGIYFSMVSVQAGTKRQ

In general, IC50 refers to the concentration that gives 50% inhibition. As for `CC(C)c1c(C(=O)Nc2ccccc2)c(-c2ccccc2)c(-c2ccc(F)cc2)n1CC[C@@H]1C[C@@H](O)CC(=O)O1` [ATORVASTATIN LACTONE], the IC50 is 14 µM in series [1] (read-out: IC50), 15 µM in series [2] (read-out: IC50) and 2.6 µM in series [3] (read-out: IC50).

Take `CC(C)c1c(C(=O)Nc2ccccc2)c(-c2ccccc2)c(-c2ccc(F)cc2)n1CC[C@@H](O)C[C@@H](O)CC(=O)O` [ATORVASTATIN]: the IC50 result in series [1] (mdck) and in series [2] (mdck) was “is not an inhibitor [IC50=-(>100uM)]” throughout.

As to `CC[C@H](C)C(=O)O[C@H]1C[C@@H](C)C=C2C=C[C@H](C)[C@H](CC[C@@H](O)C[C@@H](O)CC(=O)O)[C@H]21` [LOVASTATIN ACID], the IC50 entry in series [1] (mdck) was “is not an inhibitor [IC50=-(>100uM)]”; in series [2] (mdck), “is not an inhibitor [IC50=-(>100uM)]”; in series [3] (read-out: IC50), 4 µM.

For `CC[C@H](C)C(=O)O[C@H]1C[C@@H](C)C=C2C=C[C@H](C)[C@H](CC[C@@H]3C[C@@H](O)CC(=O)O3)[C@H]21` [LOVASTATIN], the IC50 result in series [2] (mdck) is “is not an inhibitor [IC50=-(>33uM)]”; in series [3] (read-out: IC50) it was 28 µM.

Take `CC[C@H](C)C(=O)O[C@H]1C[C@H](O)C=C2C=C[C@H](C)[C@H](CC[C@@H](O)C[C@@H](O)CC(=O)O)[C@H]21` [PRAVASTATIN]: the IC50 entry in series [1] (mdck), in series [2] (mdck) and in series [3] (hek293) was “is not an inhibitor [IC50=-(>100uM)]” in each case.

Take `CO[C@H]1/C=C/O[C@@]2(C)Oc3c(C)c(O)c4c(O)c(cc(O)c4c3C2=O)NC(=O)/C(C)=C\C=C\[C@H](C)[C@H](O)[C@@H](C)[C@@H](O)[C@@H](C)[C@H](OC(C)=O)[C@@H]1C` [RIFAMYCIN]: the IC50 in series [3] (read-out: IC50) came to 0.23 µM.

On to `CCC(C)(C)C(=O)O[C@H]1C[C@@H](C)C=C2C=C[C@H](C)[C@H](CC[C@@H](O)C[C@@H](O)CC(=O)O)[C@H]21` [TENIVASTATIN], for which the IC50 result in series [1] (mdck) was “is not an inhibitor [IC50=-(>100uM)]”; in series [2] (mdck), “is not an inhibitor [IC50=-(>100uM)]”; in series [3] (read-out: IC50), 3.6 µM.

For `CC[C@]1(O)C[C@@H]2CN(CCc3c([nH]c4ccccc34)[C@@](C(=O)OC)(c3cc4c(cc3OC)N(C)[C@H]3[C@@](O)(C(=O)OC)[C@H](OC(C)=O)[C@]5(CC)C=CCN6CC[C@]43[C@@H]65)C2)C1` [VINBLASTINE], the IC50 in series [2] (read-out: IC50) was 21 µM.
